Measurements: patent publication US9258995B2, “Organ cold storage composition and methods of use” (BOARD OF TRUSTEES OF THE UNIVERSITY OF ARKANSAS, priority 2009, dated 2016)
“Also recorded” adds a separate entry of the source.

Legend:
[1] = system: mitochondrial respiratory complex II; assay: Mitochondrial respiratory complex activity, rat kidney mitochondria after CS; settings: rat kidneys, 4-h CS, 100 μM
Method: (§1) All animals were treated according to the National Institutes of Health Guide for the Care and Use of Laboratory Animals and the University of Arkansas for Medical Sciences Institutional Animal Care and Use Committee guidelines. Male Fischer 344 inbred rats (Charles Rivers Laboratories, Inc., Wilmington, Mass.) weighing between 250 and 300 g were anesthetized with ethrane, followed by shaving and prepping with betadine. […] Bulldog clamps were placed on the aorta and vena cava (proximal and distal to the renal vessels) to prevent blood flow to the kidneys. A 22-gauge surgical needle was used to puncture the rat's aorta to flush the renal grafts with saline (10 ml per kidney) using a small catheter. Once the kidneys started to turn light brown (perfusion), another vent was formed in the vena cava to allow blood flow from the kidneys. Once both kidneys were completely flushed, the right kidney was recovered and served as a control (group 1), and the left kidney was exposed to CS alone for 4 h at 4° C. (group 2). In additional experiments, kidneys were flushed with saline through the aorta using a small catheter followed by flushing the right kidney with saline containing MitoQ (100 μM) and the left kidney with saline containing DecylTPP (100 μM) (10 ml per kidney). Tissues were recovered and stored in CS+MitoQ (100 μM; right kidney) or CS+DecylTPP (100 μM; left kidney) for 4 h at 4° C. (groups 3 and 4, respectively). A thin middle section from all of the kidneys were cut and immediately fixed in 10% formalin before being embedded in paraffin for sectioning (4 μm) and histological evaluation. The remaining portion of the kidneys were quickly frozen in liquid nitrogen and stored in −80° C. until needed for biochemistry analyses.
(§2) NRK cell and rat kidney mitochondria were isolated by centrifugation on a sucrose density gradient. The activity of mitochondrial respiratory complexes I, II, III, or IV were assayed spectrophotometrically using 100 μg of mitochondrial protein at 30° C. as previously described.

[2] = system: mitochondrial respiratory complex I; assay: as above; settings: rat kidneys, 4-h CS, 100 μM
Method: as §1, §2

rat kidneys = assay: Rodent model of warm ischemia/reperfusion (I/R); assay type: in vivo; settings: rat kidneys following warm I/R; MitoQ 48 hr oral; 100 μM
Text: (§3) Rodent models of warm ischemia/reperfusion (I/R) (FIGS. 6-7) and cold renal preservation, as well as renal cell models of cold storage (FIG. 3-5) were used to evaluate the effectiveness of MitoQ in preventing renal damage during ischemia. […] In addition, Mito Q blunted mitochondrial superoxide production (Mitosox Red staining) and respiratory complex dysfunction following cold preservation (FIGS. 4-5).

NRK cells = assay: LDH cytotoxicity assay, CS and CS plus rewarming; assay type: cell-based; settings: 1 μM
Method: Normal rat kidney proximal tubular cells (NRK-52E; American Type Culture Collection, Manassas, Va.) were maintained in six-well 100 or 150-mm, or 150-mm plates in a humidified incubator gassed with 5% CO2 and 95% air at 37° C. in DMEM (Invitrogen, Carlsbad, Calif.) containing 5% fetal calf serum (FCS). Cells were grown to 60% confluence and divided into four treatment groups: 1) untreated (Untx), 2) CS, 3) CS+MitoQ, and 4) CS+DecylTPP. Untreated cells remained at 37° C. in DMEM containing 5% FCS (group 1). CS was initiated by washing cells with cold PBS (Invitrogen) twice and storing them in UW/Viaspan solution alone (4 h at 4° C.) (group 2), CS+MitoQ (1 μM) (group 3), or CS+DecylTPP (1 μM) (group 4). In separate experiments, cells were exposed to CS plus RW by replacing UW solution alone or UW solution containing MitoQ or DecylTPP with DMEM containing 5% FCS overnight (18 h at 37° C.).
Cell cytotoxicity was determined using the LDH-Cytotoxicity Assay Kit II (Biovision Research Products, Mountain View, Calif.) according to the manufacturer's instructions. Absorbance was measured at 450 nm using a SpectraMax 190 microplate reader and SpectraMax software (Molecular Devices, Sunnyvale, Calif.). Renal cell death was determined using TUNEL staining. Kidney sections were deparaffinized, rehydrated, and exposed to antigen retrieval (20-min incubation at 95° C. with 10 mM sodium citrate buffer, pH 6.0) followed by washing with distilled water and quenching of endogenous peroxidase. Sections were immersed in TdT labeling buffer and then incubated in a humidified chamber with the labeling reaction mix from the TAGS 2 TdT-DAB In Situ Apoptosis Detection kit (Trevigen, Inc., Gaithersburg, Md.) for 1 h at room temperature. The reaction was stopped with TdT stop buffer, and slides were subsequently washed with PBS. Sections were incubated for 10 min with streptavidin-HRP followed by development with diaminobenzidine solution, counterstaining with Mayer's hematoxylin, dehydration, and mounting with Cytoseal-60. The amount of cell death was calculated by averaging the number of cells positive for TUNEL (brown staining) in 10 different fields (cortex and medulla) (20×). All images were taken at equal exposure times (40×oil).

[3] = system: mitochondrial respiratory complex; assay: Mitochondrial respiratory complex activity in kidneys following cold storage (Example 1); set-up: species or system rat; settings: following cold preservation (Example 1); MitoQ 100 μM
Method: FIG. 4 depicts a graph showing the effect of MitoQ treatment (100 μM) on mitochondrial respiratory complex activity in kidneys following cold storage *P<0.05 compared with control.
as §3

porcine kidneys = assay: Nitrotyrosine staining of porcine kidneys during cold preservation; set-up: dose or concentration left out as unconfirmed
Method: FIG. 14 depicts micrographs and plots showing increased nitrotyrosine protein expression detected during cold preservation. (A) Representative images showing MitoQ (100 mM) mediated reduction of nitrotyrosine staining. (B) Expression level of total (combined cortex and medulla) nitrotyrosine was evaluated and scored. (C) Expression level of cortical and medulla nitrotyrosine was evaluated and scored. Error bar indicates Mean SEM (n=4). *P<0.05 compared to untreated kidneys at 24 and 48 hr within the cortex.
Nitrotyrosine staining and nitrotyrosine expression levels were used to determine protective effect of MitoQ on porcine kidneys during SC.

[4] = porcine kidneys during cold preservation

## COC1=C(OC)C(=O)C(CCCCCCCCCC[P+](c2ccccc2)(c2ccccc2)c2ccccc2)=C(C)C1=O [MitoQ, mitoquinone]
[1]
  complex II inactivation: protected
[2]
  complex I inactivation: protected
Rat kidneys
  MnSOD activity: improved
NRK cells; CS alone
  decrease of cell death (LDH cytotoxicity): approximately 2 fold
NRK cells; CS.RW
  decrease of cell death (LDH cytotoxicity): approximately 2 fold
[3]
  respiratory complex dysfunction: blunted
Porcine kidneys; [4]
  nitrotyrosine expression levels, combined cortex and medulla: reduced
  nitrotyrosine staining: significantly decreased; also recorded: reduction
Porcine kidneys; porcine kidneys, 24 and 48 hr
  nitrotyrosine expression levels in the cortex: significantly lower
